Laboratory results reported in patent US20240226228A1, “ANTIMICROBIAL PEPTOID HAVING IMPROVED SELECTIVITY AND ANTIMICROBIAL COMPOSITION COMPRISING SAME” (priority 2021, published 2024).
Converted amounts (≈) assume the structure as drawn. Read-outs that look alike come from different tables or passages of the source. Where a SMILES comes first, the peptide text is derived from it. [ ]: non-standard residue; d: D form. Gly(N(CH2)2(3-indolyl)) = O=C(O)CNCCc1c[nH]c2ccccc12; Gly(N-CH2CH2-imidazol-4-yl) = O=C(O)CNCCc1c[nH]cn1; Nspe = C[C@H](NCC(=O)O)c1ccccc1; Nphe = O=C(O)CNCc1ccccc1; Nlys = NCCCCNCC(=O)O

Experiments:
E. coli ATCC25922 = test system: E. coli ATCC25922
Outline: (§1)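 Cation-adjusted MHB2 cultures (18 h, subcultured 4 h) adjusted to 2×10^5–5×10^5 CFU/mL in medium with 0.02% BSA and 0.001% acetic acid.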

S. aureus ATCC 25923 = test system: S. aureus ATCC 25923
Outline: as §1

red blood cells = test: Hemolysis assay; assay type: cell-based, Sprague-Dawley mouse
Outline: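 Peptoid is mixed with 10% (v/v) PBS-washed erythrocytes (male Sprague-Dawley […], 13 weeks) and held 1 h at 37 °C. Hemolysis is calculated from 540 nm absorbance of the supernatant, with PBS as 0% and Triton X-100 as 100%.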

[1] = Tables 11-13, 24 hours at 37° C., maximum concentration 25 μM
[2] = Table 18, TFA salt vs counter ion-substituted (HCl, AcOH) peptoids

MIC E. coli ATCC25922 (E. coli ATCC25922; ATCC25922) | MIC S. aureus ATCC 25923 (S. aureus ATCC 25923; ATCC 25923) | SMILES | MIC E. coli ATCC25922 (E. coli ATCC25922; [1]) | MIC S. aureus ATCC 25923 (S. aureus ATCC 25923; [1]) | HC10 (red blood cells) | HC50 (red blood cells) | Hmax (100 μM) (red blood cells) | HD10 (red blood cells) | HD50 (red blood cells) | MIC E. coli ATCC25922 (E. coli ATCC25922; [2]) | MIC S. aureus ATCC 25923 (S. aureus ATCC 25923; [2])
 |  | C[C@@H](c1ccccc1)N(CC(=O)N(CCCCN)CC(=O)N(CC(=O)N(CC(=O)N(CCCCN)CC(=O)N(CCc1c[nH]c2ccccc12)CC(=O)N(CCc1c[nH]c2ccccc12)CC(N)=O)[C@@H](C)c1ccccc1)[C@@H](C)c1ccccc1)C(=O)CN(CCCCN)C(=O)CN(CCCCN)C(=O)CN(C(=O)CN(C(=O)CNCCCCN)[C@@H](C)c1ccccc1)[C@@H](C)c1ccccc1 [Peptoid 30] (H-[Nlys][Nspe][Nspe][Nlys][Nlys][Nspe][Nlys][Nspe][Nspe][Nlys][Gly(N(CH2)2(3-indolyl))][Gly(N(CH2)2(3-indolyl))]-NH2) | 12.5 µM (≈ 23.3 µg/mL) | 3.1 µM (≈ 5.78 µg/mL) | >100/>100 μM | >100/>100 μM | 8.4 ± 0.5% |  |  |  | 
 |  | C[C@@H](c1ccccc1)N(CC(=O)N(CCCCN)CC(=O)N(CC(=O)N(CC(=O)N(CCCCN)CC(=O)N(CC(=O)N(CC(=O)N(CCCCN)CC(=O)N(CC(=O)N(CCc1c[nH]c2ccccc12)CC(N)=O)[C@@H](C)c1ccccc1)[C@@H](C)c1ccccc1)[C@@H](C)c1ccccc1)[C@@H](C)c1ccccc1)[C@@H](C)c1ccccc1)C(=O)CN(CCc1c[nH]c2ccccc12)C(=O)CNCCCCN [Peptoid 17] (H-[Nlys][Gly(N(CH2)2(3-indolyl))][Nspe][Nlys][Nspe][Nspe][Nlys][Nspe][Nspe][Nlys][Nspe][Gly(N(CH2)2(3-indolyl))]-NH2) | 6.3 µM (≈ 12 µg/mL) | 1.6 µM (≈ 3.04 µg/mL) | 18.0 µM | 39.7 µM | 87.3 ± 6.7% |  |  |  | 
 |  | C[C@@H](c1ccccc1)N(CC(=O)N(CCCCN)CC(=O)N(CC(=O)N(CC(=O)N(CCCCN)CC(=O)N(CC(=O)N(CC(=O)N(CCCCN)CC(=O)N(CC(=O)N(CC(N)=O)Cc1ccccc1)Cc1ccccc1)[C@@H](C)c1ccccc1)[C@@H](C)c1ccccc1)[C@@H](C)c1ccccc1)[C@@H](C)c1ccccc1)C(=O)CN(C(=O)CNCCCCN)[C@@H](C)c1ccccc1 [Peptoid 44] (H-[Nlys][Nspe][Nspe][Nlys][Nspe][Nspe][Nlys][Nspe][Nspe][Nlys][Nphe][Nphe]-NH2) | 6.3 µM (≈ 11.3 µg/mL) | 1.6 µM (≈ 2.87 µg/mL) | 6.3 µM | 28.6 µM | 97.9 ± 3.7% |  |  |  | 
12.5 µM (≈ 23.6 µg/mL) | 6.3 µM (≈ 11.9 µg/mL) | C[C@@H](c1ccccc1)N(CC(=O)N(CCc1c[nH]cn1)CC(=O)N(CCc1c[nH]c2ccccc12)CC(=O)N(CCc1c[nH]c2ccccc12)CC(N)=O)C(=O)CN(CCCCN)C(=O)CN(CCCCN)C(=O)CN(C(=O)CN(C(=O)CN(CCCCN)C(=O)CN(C(=O)CN(C(=O)CNCCCCN)[C@@H](C)c1ccccc1)[C@@H](C)c1ccccc1)[C@@H](C)c1ccccc1)[C@@H](C)c1ccccc1 [Peptoid 77] (H-[Nlys][Nspe][Nspe][Nlys][Nspe][Nspe][Nlys][Nlys][Nspe][Gly(N-CH2CH2-imidazol-4-yl)][Gly(N(CH2)2(3-indolyl))][Gly(N(CH2)2(3-indolyl))]-NH2) |  |  |  |  | 3.2 ± 0.3 | >100.0/>100.0 | >100.0/>100.0 |  | 
12.5 µM (≈ 23.6 µg/mL) | 6.3 µM (≈ 11.9 µg/mL) | C[C@@H](c1ccccc1)N(CC(=O)N(CCCCN)CC(=O)N(CCc1c[nH]c2ccccc12)CC(=O)N(CCc1c[nH]c2ccccc12)CC(N)=O)C(=O)CN(CCCCN)C(=O)CN(CCCCN)C(=O)CN(C(=O)CN(C(=O)CN(CCc1c[nH]cn1)C(=O)CN(C(=O)CN(C(=O)CNCCCCN)[C@@H](C)c1ccccc1)[C@@H](C)c1ccccc1)[C@@H](C)c1ccccc1)[C@@H](C)c1ccccc1 [Peptoid 80] (H-[Nlys][Nspe][Nspe][Gly(N-CH2CH2-imidazol-4-yl)][Nspe][Nspe][Nlys][Nlys][Nspe][Nlys][Gly(N(CH2)2(3-indolyl))][Gly(N(CH2)2(3-indolyl))]-NH2) |  |  |  |  | 4.0 ± 0.5 | >100.0/>100.0 | >100.0/>100.0 |  | 
 |  | C[C@@H](c1ccccc1)N(CC(N)=O)C(=O)CN(C(=O)CN(CCCCN)C(=O)CN(C(=O)CN(C(=O)CN(CCCCN)C(=O)CN(C(=O)CN(C(=O)CN(CCCCN)C(=O)CN(CCc1c[nH]c2ccccc12)C(=O)CN(CCc1c[nH]c2ccccc12)C(=O)CNCCCCN)[C@@H](C)c1ccccc1)[C@@H](C)c1ccccc1)[C@@H](C)c1ccccc1)[C@@H](C)c1ccccc1)[C@@H](C)c1ccccc1 [Peptoid 14-2] |  |  | 14.9 µM | 51.8 µM | 100.7 ± 17.2% |  |  | 3.1 µM | 1.6 µM
6.3 µM (≈ 11.9 µg/mL) | 6.3 µM (≈ 11.9 µg/mL) | C[C@@H](c1ccccc1)N(CC(=O)N(CCCCN)CC(=O)N(CCc1c[nH]c2ccccc12)CC(=O)N(CCc1c[nH]c2ccccc12)CC(N)=O)C(=O)CN(CCCCN)C(=O)CN(CCCCN)C(=O)CN(C(=O)CN(C(=O)CN(CCCCN)C(=O)CN(C(=O)CN(C(=O)CNCCc1c[nH]cn1)[C@@H](C)c1ccccc1)[C@@H](C)c1ccccc1)[C@@H](C)c1ccccc1)[C@@H](C)c1ccccc1 [Peptoid 81] (H-[Gly(N-CH2CH2-imidazol-4-yl)][Nspe][Nspe][Nlys][Nspe][Nspe][Nlys][Nlys][Nspe][Nlys][Gly(N(CH2)2(3-indolyl))][Gly(N(CH2)2(3-indolyl))]-NH2) |  |  |  |  | 5.7 ± 0.1 | >100.0/>100.0 | >100.0/>100.0 |  | 
 |  | C[C@@H](c1ccccc1)N(CC(=O)N(CCc1c[nH]c2ccccc12)CC(=O)N(CCCCN)CC(=O)N(CC(=O)N(CC(=O)N(CCCCN)CC(=O)N(CC(=O)N(CC(=O)N(CCCCN)CC(=O)N(CC(=O)N(CCc1c[nH]c2ccccc12)CC(N)=O)[C@@H](C)c1ccccc1)[C@@H](C)c1ccccc1)[C@@H](C)c1ccccc1)[C@@H](C)c1ccccc1)[C@@H](C)c1ccccc1)C(=O)CNCCCCN [Peptoid 16] (H-[Nlys][Nspe][Gly(N(CH2)2(3-indolyl))][Nlys][Nspe][Nspe][Nlys][Nspe][Nspe][Nlys][Nspe][Gly(N(CH2)2(3-indolyl))]-NH2) | 6.3 µM (≈ 12 µg/mL) | 1.6 µM (≈ 3.04 µg/mL) | 13.8 µM | 25.0 µM | 100.3 ± 1.7% |  |  |  | 
 |  | C[C@@H](c1ccccc1)N(CC(=O)N(CCCCN)CC(=O)N(CC(=O)N(CC(N)=O)Cc1ccccc1)Cc1ccccc1)C(=O)CN(CCCCN)C(=O)CN(CCCCN)C(=O)CN(C(=O)CN(C(=O)CN(CCCCN)C(=O)CN(C(=O)CN(C(=O)CNCCCCN)[C@@H](C)c1ccccc1)[C@@H](C)c1ccccc1)[C@@H](C)c1ccccc1)[C@@H](C)c1ccccc1 [Peptoid 45] (H-[Nlys][Nspe][Nspe][Nlys][Nspe][Nspe][Nlys][Nlys][Nspe][Nlys][Nphe][Nphe]-NH2) | >25 µM | 25 µM (≈ 44 µg/mL) | >100/>100 μM | >100/>100 μM | 4.5 ± 0.2% |  |  |  | 
 |  | C[C@@H](c1ccccc1)N(CC(N)=O)C(=O)CN(C(=O)CN(CCCCN)C(=O)CN(C(=O)CN(C(=O)CN(CCCCN)C(=O)CN(C(=O)CN(C(=O)CN(CCCCN)C(=O)CN(CCc1c[nH]c2ccccc12)C(=O)CN(C(=O)CNCCCCN)[C@@H](C)c1ccccc1)[C@@H](C)c1ccccc1)[C@@H](C)c1ccccc1)[C@@H](C)c1ccccc1)[C@@H](C)c1ccccc1)[C@@H](C)c1ccccc1 [Peptoid 10-1] |  |  | 15.3 µM | 37.8 µM | 81.5 ± 7.4% |  |  | 6.3 µM | 3.1 µM
 |  | C[C@@H](c1ccccc1)N(CC(=O)N(CCCCN)CC(=O)N(CC(=O)N(CC(=O)N(CCCCN)CC(=O)N(CCCCN)CC(=O)N(CC(=O)N(CCCCN)CC(=O)N(CCc1c[nH]c2ccccc12)CC(=O)N(CCc1c[nH]c2ccccc12)CC(N)=O)Cc1ccccc1)[C@@H](C)c1ccccc1)[C@@H](C)c1ccccc1)C(=O)CN(C(=O)CNCCCCN)[C@@H](C)c1ccccc1 [Peptoid 39] (H-[Nlys][Nspe][Nspe][Nlys][Nspe][Nspe][Nlys][Nlys][Nphe][Nlys][Gly(N(CH2)2(3-indolyl))][Gly(N(CH2)2(3-indolyl))]-NH2) | 25 µM (≈ 46.3 µg/mL) | 6.3 µM (≈ 11.7 µg/mL) | 100/>100 μM | 100/>100 μM | 10.2 ± 0.3% |  |  |  | 
 |  | C[C@@H](c1ccccc1)N(CC(N)=O)C(=O)CN(C(=O)CN(CCCCN)C(=O)CN(C(=O)CN(C(=O)CN(CCCCN)C(=O)CN(C(=O)CN(C(=O)CN(CCCCN)C(=O)CN(CCc1c[nH]c2ccccc12)C(=O)CN(C(=O)CNCCCCN)[C@@H](C)c1ccccc1)[C@@H](C)c1ccccc1)[C@@H](C)c1ccccc1)[C@@H](C)c1ccccc1)[C@@H](C)c1ccccc1)[C@@H](C)c1ccccc1 [Peptoid 10-2] |  |  | 14.1 µM | 29.4 µM | 102.3 ± 11.3% |  |  | 6.3 µM | 1.6 µM
 |  | C[C@@H](c1ccccc1)N(CC(N)=O)C(=O)CN(C(=O)CN(CCCCN)C(=O)CN(CCc1c[nH]c2ccccc12)C(=O)CN(CCc1c[nH]c2ccccc12)C(=O)CN(CCCCN)C(=O)CN(C(=O)CN(C(=O)CN(CCCCN)C(=O)CN(C(=O)CN(C(=O)CNCCCCN)[C@@H](C)c1ccccc1)[C@@H](C)c1ccccc1)[C@@H](C)c1ccccc1)[C@@H](C)c1ccccc1)[C@@H](C)c1ccccc1 [Peptoid 12] | 6.3 µM (≈ 12 µg/mL) | 1.6 µM (≈ 3.04 µg/mL) | 29.1 µM | 65.2 µM | 87.4 ± 2.4% |  |  |  | 
